Test results: paper PMC3199943, “Screening the MayBridge Rule of 3 Fragment Library for Compounds That Interact with the Trypanosoma brucei myo-Inositol-3-Phosphate Synthase and/or Show Trypanocidal Activity” (Molecular Biology International, 2011)

Target: T1, TbINO1 (Trypanosoma brucei brucei, UniProt Q5QQ46)
T1 sequence (Q5QQ46 1-528): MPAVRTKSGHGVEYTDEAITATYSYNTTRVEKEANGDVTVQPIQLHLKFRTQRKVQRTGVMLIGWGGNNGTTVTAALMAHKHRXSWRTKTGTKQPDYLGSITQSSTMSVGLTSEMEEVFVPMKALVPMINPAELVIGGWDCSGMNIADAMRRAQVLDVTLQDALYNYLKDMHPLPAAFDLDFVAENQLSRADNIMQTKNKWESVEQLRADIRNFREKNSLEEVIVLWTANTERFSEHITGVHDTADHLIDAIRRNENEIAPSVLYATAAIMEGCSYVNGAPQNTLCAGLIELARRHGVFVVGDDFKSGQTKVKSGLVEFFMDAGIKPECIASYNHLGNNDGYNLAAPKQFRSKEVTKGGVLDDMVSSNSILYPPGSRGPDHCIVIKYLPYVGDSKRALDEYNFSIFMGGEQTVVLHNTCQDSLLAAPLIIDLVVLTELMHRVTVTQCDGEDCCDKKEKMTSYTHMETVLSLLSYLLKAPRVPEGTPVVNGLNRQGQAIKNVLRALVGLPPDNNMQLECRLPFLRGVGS
Test: biochemical
Assay type: binding
Details: read-out: Tb Ino1 Tm Shift [˚C]

ΔTm at 1000 µM [°C]	Structure (SMILES)
0.44 ± 0.08	OCc1cn2ccccc2n1 [compound 172, imidazo[1,2‐a]pyridin‐2‐ylmethanol]
0.8 ± 0.05	CCc1cccc(C(C)=O)c1 [compound 174, 1‐(3‐ethylphenyl)ethan‐1‐one]
0.04 ± 0.08	Nc1ccc2c(c1)C(=O)OC2 [compound 175, 6‐amino‐1,3‐dihydroisobenzofuran‐1‐one]
0.06 ± 0.07	Cc1cccc(C(N)=O)c1C [compound 176, 2,3‐dimethylbenzamide]
0.14 ± 0.08	CCc1ccc(CNC)cc1 [compound 180, N‐(4‐ethylbenzyl)‐N‐methylamine]
0.11 ± 0.08	Cn1ccc(C(F)(F)F)n1 [compound 181, 1‐methyl‐3‐(trifluoromethyl)‐1H‐pyrazole]
0.14 ± 0.08	COC(=O)c1ccccc1C [compound 183, methyl 2‐methylbenzoate]
0.14 ± 0.09	COC(=O)c1cccc(C)c1 [compound 185, methyl 3‐methylbenzoate]
0.05 ± 0.07	CC(=O)NCc1cccnc1 [compound 188, N1‐(3‐pyridylmethyl)acetamide]
0.75 ± 0.08	N#CCCNCc1ccco1 [compound 189, 3‐[(2‐furylmethyl)amino]propanenitrile]
0.44 ± 0.11	Nc1ccc2ncsc2c1 [compound 191, 1,3‐benzothiazol‐6‐amine]
0.4 ± 0.09	Nc1ccc2c(c1)OCCO2 [compound 193, 2,3‐dihydro‐1,4‐benzodioxin‐6‐amine]
0.78 ± 0.06	COC(=O)c1cccc(N)c1 [compound 194, methyl 3‐aminobenzoate]
1.16 ± 0.06	NC1=CC=C2OCOCC2C1 (stereo not drawn) [compound 195, 4,5‐dihydro‐1,3‐benzodioxine‐6‐amine]
1.1 ± 0.06	Cc1ccc(C(=O)O)c(N)c1 [compound 196, 2‐amino‐4‐methylbenzoic acid]
0.24 ± 0.07	CC(=O)c1ccc(C#N)s1 [compound 198, 5‐acetylthiophene‐2‐carbonitrile]
0.65 ± 0.08	O=C(O)Cc1ccccc1O [compound 201, 2‐(2‐hydroxyphenyl)acetic acid]
0	O=C(O)C(O)c1ccccc1 (stereo not drawn) [compound 202, 2‐hydroxy‐2‐phenylacetic acid]
0.06 ± 0.08	OCc1cccc2c1OCO2 [compound 203, 1,3‐benzodioxol‐4‐ylmethanol]

Same assay, conditions: read-out: TbIno1 Tm shift [°C]

ΔTm at 1000 µM [°C]	Structure (SMILES)
2.31 ± 0.06	OCc1c[nH]c2ccccc12 [compound 162, 1H-indol-3-ylmethanol]
1.9 ± 0.06	OCc1cccc2[nH]ccc12 [compound 163, 1H-indol-4-ylmethanol]
4.09 ± 0.09	OCc1cccc2c1OCC2 [compound 186, 2,3-Dihydrobenzo[b]furan-7-methanol]
1.52 ± 0.06	Cc1ccc(C(N)=O)c(N)c1 [compound 190, 2-amino-4-methylbenzamide]

Tested on: A549 cells
Test: Cytotoxicity against A549 cells, Alamar Blue
Assay type: cell-based
Details: Homo sapiens, A549, 65 h; Supplementary Table 1; compound 0.5 mM; percentage of controls (n=1)
How it was run: (§1)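 Viability by Alamar Blue (5 h) after ~65 h drug treatment; seeding density 2 × 10^4 cells/well in DMEM supplemented with 10% FCS and 2 mM L-Glutamine.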

Structure (SMILES)	viability at 500 µM [%]
OCc1c[nH]c2ccccc12 [compound 162, 1H-indol-3-ylmethanol]	41.6
OCc1cccc2[nH]ccc12 [compound 163, 1H-indol-4-ylmethanol]	47
OCc1cn2ccccc2n1 [compound 172, imidazo[1,2‐a]pyridin‐2‐ylmethanol]	97.5
CCc1cccc(C(C)=O)c1 [compound 174, 1‐(3‐ethylphenyl)ethan‐1‐one]	79.2
Nc1ccc2c(c1)C(=O)OC2 [compound 175, 6‐amino‐1,3‐dihydroisobenzofuran‐1‐one]	79.5
Cc1cccc(C(N)=O)c1C [compound 176, 2,3‐dimethylbenzamide]	68.7
CCc1ccc(CNC)cc1 [compound 180, N‐(4‐ethylbenzyl)‐N‐methylamine]	87
Cn1ccc(C(F)(F)F)n1 [compound 181, 1‐methyl‐3‐(trifluoromethyl)‐1H‐pyrazole]	58.4
COC(=O)c1ccccc1C [compound 183, methyl 2‐methylbenzoate]	51
COC(=O)c1cccc(C)c1 [compound 185, methyl 3‐methylbenzoate]	61.3
OCc1cccc2c1OCC2 [compound 186, 2,3-Dihydrobenzo[b]furan-7-methanol]	41.8
CC(=O)NCc1cccnc1 [compound 188, N1‐(3‐pyridylmethyl)acetamide]	69.5
N#CCCNCc1ccco1 [compound 189, 3‐[(2‐furylmethyl)amino]propanenitrile]	84.4
Cc1ccc(C(N)=O)c(N)c1 [compound 190, 2-amino-4-methylbenzamide]	106
Nc1ccc2ncsc2c1 [compound 191, 1,3‐benzothiazol‐6‐amine]	38
Nc1ccc2c(c1)OCCO2 [compound 193, 2,3‐dihydro‐1,4‐benzodioxin‐6‐amine]	44.7
COC(=O)c1cccc(N)c1 [compound 194, methyl 3‐aminobenzoate]	38.9
NC1=CC=C2OCOCC2C1 (stereo not drawn) [compound 195, 4,5‐dihydro‐1,3‐benzodioxine‐6‐amine]	54.1
Cc1ccc(C(=O)O)c(N)c1 [compound 196, 2‐amino‐4‐methylbenzoic acid]	36.7
CC(=O)c1ccc(C#N)s1 [compound 198, 5‐acetylthiophene‐2‐carbonitrile]	61.2
O=C(O)Cc1ccccc1O [compound 201, 2‐(2‐hydroxyphenyl)acetic acid]	94.2
O=C(O)C(O)c1ccccc1 (stereo not drawn) [compound 202, 2‐hydroxy‐2‐phenylacetic acid]	55.6
OCc1cccc2c1OCO2 [compound 203, 1,3‐benzodioxol‐4‐ylmethanol]	60.8

Tested on: HeLa cells
Test: cells
Details: Homo sapiens, HeLa, 65 h, read-out: HeLa Cells Alamar Blue
How it was run: as §1

Structure (SMILES)	viability at 500 µM [%]
OCc1c[nH]c2ccccc12 [compound 162, 1H-indol-3-ylmethanol]	16.3 ± 10.6
OCc1cccc2[nH]ccc12 [compound 163, 1H-indol-4-ylmethanol]	103 ± 8.7
OCc1cn2ccccc2n1 [compound 172, imidazo[1,2‐a]pyridin‐2‐ylmethanol]	86.6 ± 15.1
CCc1cccc(C(C)=O)c1 [compound 174, 1‐(3‐ethylphenyl)ethan‐1‐one]	100 ± 7.3
Nc1ccc2c(c1)C(=O)OC2 [compound 175, 6‐amino‐1,3‐dihydroisobenzofuran‐1‐one]	106 ± 17
Cc1cccc(C(N)=O)c1C [compound 176, 2,3‐dimethylbenzamide]	88.2 ± 12.4
CCc1ccc(CNC)cc1 [compound 180, N‐(4‐ethylbenzyl)‐N‐methylamine]	99.8 ± 1.1
Cn1ccc(C(F)(F)F)n1 [compound 181, 1‐methyl‐3‐(trifluoromethyl)‐1H‐pyrazole]	115 ± 9.9
COC(=O)c1ccccc1C [compound 183, methyl 2‐methylbenzoate]	114 ± 4.3
COC(=O)c1cccc(C)c1 [compound 185, methyl 3‐methylbenzoate]	106 ± 10.4
OCc1cccc2c1OCC2 [compound 186, 2,3-Dihydrobenzo[b]furan-7-methanol]	86.5 ± 14.8
CC(=O)NCc1cccnc1 [compound 188, N1‐(3‐pyridylmethyl)acetamide]	104 ± 7.3
N#CCCNCc1ccco1 [compound 189, 3‐[(2‐furylmethyl)amino]propanenitrile]	92.5 ± 7.2
Cc1ccc(C(N)=O)c(N)c1 [compound 190, 2-amino-4-methylbenzamide]	46.7 ± 23.7
Nc1ccc2ncsc2c1 [compound 191, 1,3‐benzothiazol‐6‐amine]	76.3 ± 15.1
Nc1ccc2c(c1)OCCO2 [compound 193, 2,3‐dihydro‐1,4‐benzodioxin‐6‐amine]	79.9 ± 13.6
COC(=O)c1cccc(N)c1 [compound 194, methyl 3‐aminobenzoate]	88.3 ± 9.2
NC1=CC=C2OCOCC2C1 (stereo not drawn) [compound 195, 4,5‐dihydro‐1,3‐benzodioxine‐6‐amine]	77.4 ± 10.5
Cc1ccc(C(=O)O)c(N)c1 [compound 196, 2‐amino‐4‐methylbenzoic acid]	97.4 ± 4.1
CC(=O)c1ccc(C#N)s1 [compound 198, 5‐acetylthiophene‐2‐carbonitrile]	93.3 ± 15.3
O=C(O)Cc1ccccc1O [compound 201, 2‐(2‐hydroxyphenyl)acetic acid]	94.1 ± 15.7
O=C(O)C(O)c1ccccc1 (stereo not drawn) [compound 202, 2‐hydroxy‐2‐phenylacetic acid]	96.7 ± 12.5
OCc1cccc2c1OCO2 [compound 203, 1,3‐benzodioxol‐4‐ylmethanol]	94.6 ± 14.1

Same assay, conditions: Homo sapiens, HeLa, 65 h, read-out: HeLa Cells Alamar Blue (% survival)

Structure (SMILES)	viability at 500 µM [%]
OCc1c[nH]c2ccccc12 [compound 162, 1H-indol-3-ylmethanol]	16.3 ± 10.6
OCc1cccc2[nH]ccc12 [compound 163, 1H-indol-4-ylmethanol]	103 ± 8.7
OCc1cccc2c1OCC2 [compound 186, 2,3-Dihydrobenzo[b]furan-7-methanol]	86.5 ± 14.8
Cc1ccc(C(N)=O)c(N)c1 [compound 190, 2-amino-4-methylbenzamide]	46.7 ± 23.7

Same assay, conditions: Homo sapiens, HeLa, read-out: HeLa ED50

Structure (SMILES)	CC50 [mM]
OCc1c[nH]c2ccccc12 [compound 162, 1H-indol-3-ylmethanol]	0.103 ± 0.006
OCc1cccc2[nH]ccc12 [compound 163, 1H-indol-4-ylmethanol]	2.5 ± 0.2
